Reference: US20240239735A1, “ACID ADDITION SALT OF ROCK INHIBITOR, AND CRYSTAL FORM, COMPOSITION AND PHARMACEUTICAL USE THEREOF” (WUHAN LL SCIENCE AND TECHNOLOGY DEVELOPMENT CO., LTD., priority 2021, published 2024)
Values after ≈ are worked out from the molar mass of the structure shown. Like-named read-outs stand apart in the source and are kept apart here. Each block holds one molecule with its values, some of them ahead of it.

Legend:
[1] = Solid state stability test (HPLC purity, XRPD); format: physicochemical; details: for Initial purity (Area %): 0 weeks; for Initial purity (Area %) / Purity (Area %): 265 nm; for Physical and chemical stability: 60° C./sealed and 40° C./75% RH open
Procedure: (§1) The instrument used for HIPLC analysis was Agilent TIPLC 1260 series.
The samples after being stored 0 days, 1 week, and 2 weeks were taken and each dissolved in a diluent to prepare about 1.0 mg/mL solution, which was tested for chemical stability by HPLC. The solid sample after being stored for 1 week or 2 weeks was tested for physical stability by XRPD.

[2] = Pharmacokinetic study in SD rats, intragastric administration; format: in vivo; details: for Cmax: compound A in plasma; for Exposure of compound A relative to administration of the free base: same dose
Procedure: In the experiment, 12 SD rats (purchased from Beijing Vital River Laboratory Animal Technology Co., Ltd.) weighing 180-280 g, half male and female, were used. The animals were randomly divided into four groups of 3 animals each, with female rats in the first and third groups and male rats in the second and fourth groups.
Blood was collected from the orbital venous plexus of rats at various time points (0.167 h, 0.5 h, 1 h, 2 h, 3 h, 4 h, 6 h, 9 h, 12 h, and 24 h) after administration. The concentration of compound A in the plasma was determined.
Data will be analyzed by a non-compartmental model using WinNonlin (version 5.2.1 Pharsight, Mountain View, CA) to obtain PK parameters (parameters selected for different routes of administration, such as C0, Cmax, Tmax, AUC0-last, AUCinf, T1/2, CL, and Vz).

[3] = Hygroscopicity test by dynamic vapor sorption (DVS); format: physicochemical; details: for DVS weight gain (Wt. gain %): 25° C.; for Hygroscopicity: DVS, assessment in words
Procedure: The sample was subjected to water adsorption/desorption tests using a Vsorp (ProUmid GmbH & Co. KG, Germany) water adsorption analyzer. The sample was placed in a tared sample tray, and the change in the sample mass with humidity (0-90% RH) at 25° C. was recorded.

[4] = Solubility test in biologically relevant media at 37° C. (HPLC, pH, XRPD of filter cake); format: physicochemical
Procedure: as §1
The suspension was incubated by shaking on a shaker at 100 rpm at 37° C. 1 mL of the dispersion was taken at 0.5 h, 2 h, and 24 h, and filtered. The filtrate was tested for the solubility by HPLC and for the pH value by a pH meter. The filter cake was characterized for the crystal form by XRPD.

[5] = Hygroscopicity test by dynamic vapor sorption (DVS); format: physicochemical; details: from 0.0% RH to 95% RH
[6] = female SD rats, 20 mg/kg in 5% TPGS, 20 mg/kg
[7] = female, SD, rat, plasma, po, 20 mg/kg, female SD rats, 20 mg/kg in 5% TPGS
[8] = male SD rats, 20 mg/kg in 5% TPGS, 20 mg/kg
[9] = SGF medium, 0.5 h, rounded values
[10] = male, SD, rat, plasma, po, 20 mg/kg, male SD rats, 20 mg/kg in 5% TPGS

Initial purity (Area %) ([1]; HPLC method of 7-day test): 98.62 Area %
Initial purity (Area %) ([1]; HPLC method of 14-day test): 99.83 Area %
Purity (Area %) ([1]; 1 week, 40° C./75% RH open): 98.62 Area %
Purity (Area %) ([1]; 1 week, 60° C./sealed): 98.64 Area %
Purity (Area %) ([1]; 2 weeks, 40° C./75% RH open): 99.83 Area %
Purity (Area %) ([1]; 2 weeks, 60° C./sealed): 99.83 Area %
Physical and chemical stability ([1]; one week): physically and chemically stable
Physical and chemical stability ([1]; two weeks): physically and chemically stable
AUClast [2, 6]: 14778 ± 3318 ng·h/mL
AUC(0-inf) [2, 7]: 18160 ± 150 ng·h/mL
half-life [2, 7]: 2.88 ± 0.46 h
Cmax ([2]; female, SD, rat, plasma, po, 20 mg/kg, female SD rats, 20 mg/kg in 5% TPGS, read-out: Cmax): 3620 ± 321 ng/mL
Tmax ([2]; female, SD, rat, plasma, po, 20 mg/kg, female SD rats, 20 mg/kg in 5% TPGS, read-out: Tmax): 0.67 ± 0.17 h
AUCinf [2, 8]: 19790 ± 2233 ng·h/mL
AUClast [2, 8]: 19604 ± 2132 ng·h/mL
T1/2 [2, 8]: 3.33 ± 0.40 h
Tmax [2, 8]: 1.00 ± 0.00 h
Cmax [2, 8]: 3297 ± 676 ng/mL
XRPD pattern / crystal form before and after the DVS test [3]: crystal form remained unchanged
DVS weight gain (Wt. gain %) ([3]; 0.0% RH to 80% RH): 1.3%
DVS weight gain (Wt. gain %) ([3]; 0.0% RH to 90% RH): 1.5%
Hygroscopicity [3]: slightly hygroscopic
Solubility ([4]; FaSSIF, 37° C., 0.5 h): 8.24 µg/mL (≈ 21.6 µM)
Solubility ([4]; FaSSIF, 37° C., 2 h): 5.14 µg/mL (≈ 13.5 µM)
Solubility ([4]; FaSSIF, 37° C., 24 h): 6.44 µg/mL (≈ 16.9 µM)
XRPD (crystal form of filter cake) ([4]; FaSSIF, 37° C., 24 h): Remains unchanged
XRPD (crystal form of filter cake) ([4]; FaSSIF, 37° C., 24 h, listed as free base crystal form II): remained unchanged
pH of filtrate ([4]; FaSSIF, 24 h (0 h: 6.50)): 6.49
Solubility ([4]; FeSSIF, 37° C., 0.5 h): 33.38 µg/mL (≈ 87.5 µM)
Solubility ([4]; FeSSIF, 37° C., 2 h): 42.87 µg/mL (≈ 112 µM)
Solubility ([4]; FeSSIF, 37° C., 24 h): 48.68 µg/mL (≈ 128 µM)
XRPD (crystal form of filter cake) ([4]; FeSSIF, 37° C., 24 h): Remains unchanged
XRPD (crystal form of filter cake) ([4]; FeSSIF, 37° C., 24 h, listed as free base crystal form II): remained unchanged
pH of filtrate ([4]; FeSSIF, 24 h (0 h: 5.00)): 4.99
Solubility [4, 9]: 1000 µg/mL (≈ 2620 µM)
Solubility ([4]; SGF, 37° C., 0.5 h): 1010 µg/mL (≈ 2650 µM)
Solubility ([4]; SGF, 37° C., 2 h): 1027 µg/mL (≈ 2690 µM)
Solubility ([4]; SGF, 37° C., 24 h): 1167 µg/mL (≈ 3060 µM)
XRPD (crystal form of filter cake) ([4]; SGF, 37° C., 24 h): Remains unchanged
XRPD (crystal form of filter cake) ([4]; SGF, 37° C., 24 h, listed as free base crystal form II): remained unchanged
pH of filtrate ([4]; SGF, 24 h (0 h: 1.20)): 1.29
Compound: COc1cccc(CNC(=O)N2CCc3cc(-c4c[nH]nc4N)c(F)cc32)c1 [Free base crystal form II, 5-(3-amino-1H-pyrazol-4-yl)-6-fluoro-N-(3-methoxybenzyl)indoline-1-carboxamide]

Initial purity (Area %) ([1]; HPLC method of 7-day test): 99.30 Area %
Purity (Area %) ([1]; 1 week, 40° C./75% RH open): 99.20 Area %
Purity (Area %) ([1]; 1 week, 60° C./sealed): 99.20 Area %
DVS water absorbed [5]: about 0.2%
XRPD pattern / crystal form before and after the DVS test [3]: crystal form remained unchanged
Hygroscopicity [3]: non-hygroscopic
Solubility ([4]; FaSSIF, 37° C., 24 h): 0.28 µg/mL
pH of filtrate ([4]; FaSSIF, 24 h (0 h: 6.50)): 6.2
Solubility ([4]; FeSSIF, 37° C., 24 h): 132.92 µg/mL
pH of filtrate ([4]; FeSSIF, 24 h (0 h: 5.00)): 4.9
Solubility ([4]; SGF, 37° C., 24 h): 1425.24 µg/mL
XRPD (crystal form of filter cake) ([4]; SGF, 37° C., 24 h): Remains unchanged
pH of filtrate ([4]; SGF, 24 h (0 h: 1.20)): 1.2
Compound: COc1cccc(CNC(=O)N2CCc3cc(-c4c[nH]nc4N)c(F)cc32)c1 [Fumarate crystal form II]

Initial purity (Area %) ([1]; HPLC method of 7-day test): 99.85 Area %
Initial purity (Area %) ([1]; HPLC method of 14-day test): 99.73 Area %
Purity (Area %) ([1]; 1 week, 40° C./75% RH open): 99.85 Area %
Purity (Area %) ([1]; 1 week, 60° C./sealed): 99.86 Area %
Purity (Area %) ([1]; 2 weeks, 40° C./75% RH open): 99.74 Area %
Purity (Area %) ([1]; 2 weeks, 60° C./sealed): 99.75 Area %
Physical and chemical stability ([1]; one week): physically and chemically stable
Physical and chemical stability ([1]; two weeks): physically and chemically stable
AUCinf [2, 6]: 33018 ± 1303 ng·h/mL
AUClast [2, 6]: 32884 ± 1318 ng·h/mL
T1/2 [2, 6]: 3.01 ± 0.22 h
Tmax [2, 6]: 0.83 ± 0.17 h
Cmax [2, 6]: 6357 ± 342 ng/mL
Exposure of compound A relative to administration of the free base ([2]; female rats): 2.23 times
Exposure of compound A relative to administration of the free base ([2]; male rats): 1.22 times
AUC(0-inf) [2, 10]: 24100 ± 2900 ng·h/mL
AUC(0-t) [2, 10]: 23900 ± 2930 ng·h/mL
half-life [2, 10]: 3.44 ± 0.29 h
Cmax ([2]; male, SD, rat, plasma, po, 20 mg/kg, male SD rats, 20 mg/kg in 5% TPGS, read-out: Cmax): 3050 ± 198 ng/mL
Tmax ([2]; male, SD, rat, plasma, po, 20 mg/kg, male SD rats, 20 mg/kg in 5% TPGS, read-out: Tmax): 0.67 ± 0.17 h
XRPD pattern / crystal form before and after the DVS test [3]: crystal form remained unchanged
DVS weight gain (Wt. gain %) ([3]; 0.0% RH to 80% RH): <0.2%
DVS weight gain (Wt. gain %) ([3]; 0.0% RH to 80% RH, listed as fumarate crystal form I): < 0.2%
DVS weight gain (Wt. gain %) ([3]; 0.0% RH to 90% RH): <0.2%
DVS weight gain (Wt. gain %) ([3]; 0.0% RH to 90% RH, listed as fumarate crystal form I): < 0.2%
Hygroscopicity [3]: non-hygroscopic
Solubility relative to free base crystal form II ([4]; 0.5 h, all three biologically relevant media): about twice
Solubility ([4]; FaSSIF, 37° C., 0.5 h): 12.19 µg/mL
Solubility ([4]; FaSSIF, 37° C., 2 h): 3.57 µg/mL
Solubility ([4]; FaSSIF, 37° C., 24 h): 4.25 µg/mL
pH of filtrate ([4]; FaSSIF, 24 h (0 h: 6.50)): 5.96
Solubility ([4]; FeSSIF, 37° C., 0.5 h): 109.2 µg/mL
Solubility ([4]; FeSSIF, 37° C., 2 h): 75.30 µg/mL
Solubility ([4]; FeSSIF, 37° C., 24 h): 61.39 µg/mL
pH of filtrate ([4]; FeSSIF, 24 h (0 h: 5.00)): 4.90
Solubility [4, 9]: 1900 µg/mL
Solubility ([4]; SGF, 37° C., 0.5 h): 1899 µg/mL
Solubility ([4]; SGF, 37° C., 2 h): 2135 µg/mL
Solubility ([4]; SGF, 37° C., 24 h): 2146 µg/mL
XRPD (crystal form of filter cake) ([4]; SGF, 37° C., 24 h): Trace solid
pH of filtrate ([4]; SGF, 24 h (0 h: 1.20)): 1.29
Compound: COc1cccc(CNC(=O)N2CCc3cc(-c4c[nH]nc4N)c(F)cc32)c1 [Fumarate crystal form I]
Crystal form during the solubility test ([4]; 0.5 h, FaSSIF and FeSSIF media): dissociated into the free base crystal form II

Initial purity (Area %) ([1]; HPLC method of 7-day test): 96.97 Area %
Purity (Area %) ([1]; 1 week, 40° C./75% RH open): 96.97 Area %
Purity (Area %) ([1]; 1 week, 60° C./sealed): 96.13 Area %
Physical and chemical stability ([1]; one week): degraded
XRPD pattern / crystal form before and after the DVS test [3]: crystal form remained unchanged
DVS weight gain (Wt. gain %) ([3]; 0.0% RH to 80% RH): 2.3%
DVS weight gain (Wt. gain %) ([3]; 0.0% RH to 90% RH): 3.1%
Hygroscopicity [3]: slightly hygroscopic
Solubility ([4]; FaSSIF, 37° C., 0.5 h): 19.34 µg/mL
Solubility ([4]; FaSSIF, 37° C., 2 h): 12.35 µg/mL
Solubility ([4]; FaSSIF, 37° C., 24 h): 13.41 µg/mL
pH of filtrate ([4]; FaSSIF, 24 h (0 h: 6.50)): 5.94
Solubility ([4]; FeSSIF, 37° C., 0.5 h): 96.23 µg/mL
Solubility ([4]; FeSSIF, 37° C., 2 h): 194.1 µg/mL
Solubility ([4]; FeSSIF, 37° C., 24 h): 255.4 µg/mL
XRPD (crystal form of filter cake) ([4]; FeSSIF, 37° C., 24 h): Remains unchanged
XRPD (crystal form of filter cake) ([4]; FeSSIF, 37° C., 24 h, listed as oxalate crystal form I): remained unchanged
pH of filtrate ([4]; FeSSIF, 24 h (0 h: 5.00)): 4.94
Solubility [4, 9]: 70 µg/mL
Solubility ([4]; SGF, 37° C., 0.5 h): 73.75 µg/mL
Solubility ([4]; SGF, 37° C., 2 h): 123.4 µg/mL
Solubility ([4]; SGF, 37° C., 24 h): 139.9 µg/mL
XRPD (crystal form of filter cake) ([4]; SGF, 37° C., 24 h): Remains unchanged
XRPD (crystal form of filter cake) ([4]; SGF, 37° C., 24 h, listed as oxalate crystal form I): remained unchanged
pH of filtrate ([4]; SGF, 24 h (0 h: 1.20)): 1.24
Compound: COc1cccc(CNC(=O)N2CCc3cc(-c4c[nH]nc4N)c(F)cc32)c1 [Oxalate crystal form I]
XRPD (crystal form of filter cake) ([4]; FaSSIF, 37° C., 24 h): partially dissociated into the free base crystal form II
